Results reported in the supplement of paper PMC11061612.

Tests used:
Assay in all cases: combination Emax (second highest fraction inhibited in the dose matrix, 72 h); higher = more inhibition; extreme values may be limits of the assay
CAL-78 (Chondrosarcoma) = test system: CAL-78 (Chondrosarcoma)
Method in brief: (§1)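 Bliss excess equals the observed combination effect minus the expected value EA + EB − EA·EB, where EA and EB are the effects of each agent alone. Combination Emax is the second-highest inhibition within the matrix. Inhibition was scaled from CellTiter-Glo 2.0 luminescence, with 0 set by vehicle wells and 1 by blank wells, after 72 hours of two-drug dosing of cells plated in 1536-well plates.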

J82 (Bladder Carcinoma) = test system: J82 (Bladder Carcinoma)
Method in brief: as §1

[1] = test system: LS-513 (Colorectal Carcinoma)
Method in brief: as §1

[2] = test system: COR-L95 (Small Cell Lung Carcinoma)
Method in brief: as §1

[3] = test system: OCI-AML2 (Acute Myeloid Leukemia)
Method in brief: as §1

NCI-H2595 (Mesothelioma) = test system: NCI-H2595 (Mesothelioma)
Method in brief: as §1

[4] = test system: MFH-ino (Other Solid Carcinomas)
Method in brief: as §1

[5] = test system: DOV13 (Ovarian Carcinoma)
Method in brief: as §1

[6] = test system: SW1990 (Pancreatic Carcinoma)
Method in brief: as §1

[7] = test system: MDA-MB-157 (Breast Carcinoma)
Method in brief: as §1

[8] = test system: EM-2 (Chronic Myelogenous Leukemia)
Method in brief: as §1

[9] = test system: DB (B-Cell Non-Hodgkin's Lymphoma)
Method in brief: as §1

[10] = test system: TE-5 (Esophageal Squamous Cell Carcinoma)
Method in brief: as §1

[11] = test system: TGBC24TKB (Biliary Tract Carcinoma)
Method in brief: as §1

[12] = test system: KARPAS-1106P (B-Cell Non-Hodgkin's Lymphoma)
Method in brief: as §1

[13] = test system: HCC2157 (Breast Carcinoma)
Method in brief: as §1

SK-N-FI (Neuroblastoma) = test system: SK-N-FI (Neuroblastoma)
Method in brief: as §1

[14] = test system: COR-L23 (Non-Small Cell Lung Carcinoma)
Method in brief: as §1

DSH1 (Bladder Carcinoma) = test system: DSH1 (Bladder Carcinoma)
Method in brief: as §1

[15] = test system: CTV-1 (T-Lymphoblastic Leukemia)
Method in brief: as §1

| Structure (SMILES) | combination Emax (CAL-78 (Chondrosarcoma)) | combination Emax (J82 (Bladder Carcinoma)) | combination Emax [1] | combination Emax [2] | combination Emax [3] | combination Emax (NCI-H2595 (Mesothelioma)) | combination Emax [4] | combination Emax [5] | combination Emax [6] | combination Emax [7] | combination Emax [8] | combination Emax [9] | combination Emax [10] | combination Emax [11] | combination Emax [12] | combination Emax [13] | combination Emax (SK-N-FI (Neuroblastoma)) | combination Emax [14] | combination Emax (DSH1 (Bladder Carcinoma)) | combination Emax [15] |
| --- | --- | --- | --- | --- | --- | --- | --- | --- | --- | --- | --- | --- | --- | --- | --- | --- | --- | --- | --- | --- |
| CC1(C)CCC(CN2CCN(c3ccc(C(=O)NS(=O)(=O)c4ccc(NCC5CCOCC5)c([N+](=O)[O-])c4)c(Oc4cnc5[nH]ccc5c4)c3)CC2)=C(c2ccc(Cl)cc2)C1 [Venetoclax] + CCN(CCO)CCCOc1ccc2c(Nc3cc(CC(=O)Nc4cccc(F)c4)[nH]n3)ncnc2c1 [AZD2811] (first compound max 1 µM, 7x7, partner max 1 µM) | 0.328 | 0.177 | 0.399 | 0.743 | 1 | 0.611 | 0.191 | 0.523 | 0.625 | 0.56 | 0.864 | 0.965 | 0.29 | 0.525 | 0.46 | 0.762 | 0.198 | 0.172 | 0.271 | 0.184 |
| CC(=O)Nc1cccc(-n2c(=O)n(C3CC3)c(=O)c3c(Nc4ccc(I)cc4F)n(C)c(=O)c(C)c32)c1 [Trametinib] + Cc1nc(-c2cn3c(n2)-c2ccc(-c4cnn(C(C)(C)C(N)=O)c4)cc2OCC3)n(C(C)C)n1 [Taselisib] (first compound max 1 µM, 7x7, partner max 10 µM) | 0.512 | 0.593 | 1 | 0.439 | 1 | 0.404 | 0.583 | 0.76 | 0.971 | 0.336 | 0.935 | 0.212 | 0.767 | 0.969 | 0.749 | 1 | 0.954 | 0.919 | 0.994 | 0.96 |
| Cn1cnc2c(F)c(Nc3ccc(Br)cc3Cl)c(C(=O)NOCCO)cc21 [Selumetinib] + C=CCn1c(=O)c2cnc(Nc3ccc(N4CCN(C)CC4)cc3)nc2n1-c1cccc(C(C)(C)O)n1 [AZD1775] (first compound max 10 µM, partner max 1 µM) | 0.544 | 0.299 | 0.904 | 0.32 | 1 | 0.18 | 0.345 | 0.637 | 0.431 | 0.48 | 0.92 | 0.793 | 0.292 | 0.637 | 0.782 | 0.729 | 0.69 | 0.722 | 0.503 | 0.963 |
| Cn1cnc2c(F)c(Nc3ccc(Br)cc3Cl)c(C(=O)NOCCO)cc21 [Selumetinib] + CC(C)n1c(=O)n(C)c2cnc3cc(F)c(-c4ccc(OCCCN5CCCCC5)nc4)cc3c21 [AZD1390] (first compound max 10 µM, 7x7, partner max 0.3 µM) | 0.136 | 0.787 | 0.858 | 0.18 | 0.993 | 0.191 | 0.281 | 0.124 | 0.202 | 0.131 | 0.545 | 0.304 | 0.137 | 0.828 | 0.0708 | 0.238 | 0.435 | 0.268 | 0.323 | 0.331 |
| CCN(CCO)CCCOc1ccc2c(Nc3cc(CC(=O)Nc4cccc(F)c4)[nH]n3)ncnc2c1 [AZD2811] + O=C(c1cc(Cc2n[nH]c(=O)c3ccccc23)ccc1F)N1CCN(C(=O)C2CC2)CC1 [Olaparib] (first compound max 1 µM, 7x7, partner max 10 µM) | 0.416 | 0.0709 | 0.404 | 0.436 | 0.873 | 0.226 | 0.338 | 0.483 | 0.168 | 0.251 | 0.822 | 0.604 | 0.184 | 0.564 | 0.535 | 0.539 | 0.171 | 0.0799 | 0.328 | 0.375 |
| Cc1cc2ncnn2cc1Nc1ncc2c(n1)n(C1CCOCC1)c(=O)n2C [AZD7648] + C=CCn1c(=O)c2cnc(Nc3ccc(N4CCN(C)CC4)cc3)nc2n1-c1cccc(C(C)(C)O)n1 [AZD1775] (first compound max 10 µM, partner max 1 µM) | 0.458 | 0.244 | 0.776 | 0.583 | 0.986 | 0.244 | 0.39 | 0.839 | 0.467 | 0.649 | 0.964 | 0.786 | 0.515 | 0.786 | 0.901 | 0.899 | 0.591 | 0.36 | 0.463 | 0.97 |
| CC(=O)c1c(C)c2cnc(Nc3ccc(N4CCNCC4)cn3)nc2n(C2CCCC2)c1=O [Palbociclib] + Cn1cnc2c(F)c(Nc3ccc(Br)cc3Cl)c(C(=O)NOCCO)cc21 [Selumetinib] (first compound max 10 µM, 7x7, partner max 10 µM) | 0.331 | 0.138 | 0.876 | 0.283 | 1 | 0.155 | 0.429 | 0.467 | 0.334 | 0.147 | 0.459 | 0.785 | 0.213 | 0.429 | 0.601 | 0.394 | 0.531 | 0.327 | 0.479 | 0.905 |
| COc1nnc2ccc(N3CCC(c4ccc(OCCN5CCN(C)C(=O)[C@H]5C)cc4)CC3)nn12 [AZD5153] + C=CCn1c(=O)c2cnc(Nc3ccc(N4CCN(C)CC4)cc3)nc2n1-c1cccc(C(C)(C)O)n1 [AZD1775] (first compound max 1 µM, partner max 1 µM) | 0.551 | 0.486 | 0.728 | 0.433 | 1 | 0.371 | 0.473 | 0.826 | 0.24 | 0.636 | 0.986 | 0.953 | 0.383 | 0.826 | 0.884 | 1 | 0.641 | 0.68 | 0.614 | 0.996 |
| CN(CCO)CC[C@H](CSc1ccccc1)Nc1ccc(S(=O)(=O)NC(=O)c2ccc(N3CCC([C@@H](O)c4ccccc4-c4ccc(Cl)cc4)CC3)cc2)cc1S(=O)(=O)C(F)(F)F [AZD4320] + C[C@@H](Nc1cc(F)cc(F)c1)c1cc(C(=O)N(C)C)cc2c(=O)cc(N3CCOCC3)oc12 [AZD8186] (first compound max 1 µM, 7x7, partner max 3 µM) | 0.7 | 0.282 | 0.708 | 1 | 1 | 0.271 | 0.397 | 0.916 | 0.388 | 0.349 | 0.959 | 0.921 | 0.636 | 0.544 | 0.951 | 0.978 | 0.395 | 0.332 | 0.404 | 0.719 |
| COc1nnc2ccc(N3CCC(c4ccc(OCCN5CCN(C)C(=O)[C@H]5C)cc4)CC3)nn12 [AZD5153] + C[C@@H]1COCCN1C2=NC(=NC(=C2)C3(CC3)[S@](=N)(=O)C)C4=C5C=CNC5=NC=C4 [AZD6738] (first compound max 1 µM, 7x7, partner max 10 µM) | 0.515 | 0.604 | 0.755 | 0.547 | 1 | 0.461 | 0.547 | 0.923 | 0.497 | 0.913 | 0.998 | 0.811 | 0.503 | 0.855 | 0.944 | 1 | 0.783 | 0.772 | 0.808 | 0.987 |
| Cc1cc2ncnn2cc1Nc1ncc2c(n1)n(C1CCOCC1)c(=O)n2C [AZD7648] + CN(C)CCCOc1ccc(-c2ccc3ncc4c(c3c2)n(C2CCOCC2)c(=O)n4C)cn1 [AZD0156] (first compound max 10 µM, 7x7, partner max 1 µM) | 0.173 | 0.104 | 0.247 | 0.233 | 0.367 | 0.208 | 0.341 | 0.325 | 0.212 | 0.209 | 0.349 | 0.551 | 0.41 | 0.357 | 0.423 | 0.478 | 0.353 | 0.0702 | 0.286 | 0.262 |
| COc1cccc(OCCCN)c1-c1cc(Nc2cnc(C#N)cn2)n[nH]1 [Prexasertib] + Cc1cc2ncnn2cc1Nc1ncc2c(n1)n(C1CCOCC1)c(=O)n2C [AZD7648] (first compound max 1 µM, 7x7, partner max 10 µM) | 0.586 | 0.377 | 0.848 | 0.644 | 1 | 0.159 | 0.464 | 0.914 | 0.703 | 0.961 | 0.99 | 0.766 | 0.526 | 0.827 | 0.909 | 0.958 | 0.915 | 0.711 | 0.768 | 0.966 |
| Cc1nc(Nc2ncc(C(=O)Nc3c(C)cccc3Cl)s2)cc(N2CCN(CCO)CC2)n1 [Dasatinib] + CC(=O)Nc1cccc(-n2c(=O)n(C3CC3)c(=O)c3c(Nc4ccc(I)cc4F)n(C)c(=O)c(C)c32)c1 [Trametinib] (first compound max 2 µM, 7x7, partner max 1 µM) | 0.474 | 0.276 | 0.998 | 0.128 | 1 | 0.265 | 0.513 | 0.814 | 0.399 | 0.234 | 0.861 | 0.28 | 0.322 | 0.736 | 0.741 | 0.423 | 0.757 | 0.85 | 0.505 | 1 |
